{"source": "patent US12403127B2", "about": "“Specifically meso-substituted porphyrins and chlorins for photodynamic therapy” (biolitec Unternehmensbeteiligungs II AG, priority 2014, dated 2025)", "key": {"[1]": {"system": "HT29 (human colon adenocarcinoma cell line)", "experiment": "Cell test of photosensitizing activity (XTT cell viability after 652 nm laser irradiation) in HT29", "format": "cell-based", "conditions": "2 or 10 μM photosensitizer, 24 h incubation, 50 J/cm^2, XTT viability 24 h after irradiation", "method": "(§1) The photosensitizing activity was determined in the following cell lines: • HT29 (human colon adenocarcinoma cell line) • L929 (mouse fibroblast cell line) • A431 (human epidermoid carcinoma cell line) • A253 (submaxillary salivary gland, epidermoid cell line) • CAL-27 (human tongue squamous cell carcinoma cell line).\n(§2) The cell lines were grown in DMEM (PAA Laboratories GmbH) supplemented with 10% heat-inactivated fetal calf serum (FCS, PAA Laboratories GmbH), 1% penicillin (10000 IU) and streptomycin (10000 μg/ml, PAA Laboratories GmbH). Cells were kept as a monolayer culture in a humidified incubator (5% CO2 in air at 37° C.).\n(§3) A photosensitizer stock solution (2 mM) was performed in DMSO and was kept in the dark at 4° C. Further dilution was performed in DMEM medium without phenol red supplemented with 10% FCS to reach a final photosensitizer concentration of 2 or 10 μM, respectively.\n(§4) 2·10^4 cells/ml were seeded in micro plates ([…]). Cells were incubated with fresh medium (DMEM without phenol red) containing 10% FCS with 2 or 10 μM of the photosensitizer for 24 h before light exposure. […]\n(§5) The cell viability was assessed by the XTT assay. […]\n(§6) The absorbance of the samples was measured with a spectrophotometer (Infinite 200, Tecan Group Ltd.) at a wavelength of 490 nm. In order to measure reference absorbance (to measure non-specific readings) a wavelength of 630-690 nm was used."}, "[2]": {"system": "CAL-27 (human tongue squamous cell carcinoma cell line)", "experiment": "Cell test of photosensitizing activity (XTT cell viability after 652 nm laser irradiation) in CAL-27", "format": "cell-based", "conditions": "2 or 10 μM photosensitizer, 24 h incubation, 50 J/cm^2, XTT viability 24 h after irradiation", "method": "as §1, §2, §3, §4, §5, §6"}}}
{"substance": "5,10,15-tris-(3-hydroxy-phenyl)-20-[4-(butyloxy)-tetra-fluorphenyl]-porphyrin [Example 7.13]", "values": [{"measurement": "photodynamic activity (photo toxicity, \"Laser\") in the HT29 cell line", "setting": "[1]", "result": "lack activity"}, {"measurement": "PDT activity against CAL-27 cells", "setting": "[2]", "result": "show PDT activity"}]}
